Where two headings read alike, the source gives them in different places. *1 amine or outer side, *2 acyl side, *3 side chain or, on linkers, in order; H or OH if unused. Where a SMILES comes first, the peptide text is derived from it. Bridges are numbered along the chain shown (N, C = ends). Roman numbers before positions name the chains, in order. [ ]: non-standard residue; d: D form. The star is where a group is joined. Hexamethylenediamine = C(CCCN[*:2])CCN[*:1]; Dip = N[C@H](C(=O)O)C(c1ccccc1)c1ccccc1; Chg = N[C@H](C(=O)O)C1CCCCC1; NMeA = CN[C@@H](C)C(=O)O; Cbz = O=C(OCc1ccccc1)*; CH2F = FC*
Legend:
Tnfr1KOHoil-1E-KO mice = test: Cell death-driven lethal skin inflammation (dermatitis) model, Tnfr1KO Hoil-1E-KO mice; assay type: in vivo; details: treated once inflammation has been initiated (from 30 days onwards)
NIH3T3 cells = test: Death ligand-induced cell death in NIH3T3 cells, Sytox green, Incucyte; assay type: cell-based, mouse; details: in presence of zVAD-fmk
[1] = tested on: Human pancreatic ductal epithelial cells (HPDECs); test: Death ligand-induced cell death in HPDECs, Sytox green, Incucyte; assay type: cell-based
[2] = tested on: Primary human lung fibroblasts (MRC5 cells); test: Death ligand-induced cell death in MRC5 cells, Sytox green, Incucyte; assay type: cell-based; details: for inhibition of TRAIL-induced cell death: MRC5 cells, FIG. 5
MRC5 cells = test: Western blot of cell lysates of IFN-treated MRC5 cells; assay type: cell-based, human; details: IFNs for 24 h
Experimental: FIG. 6: MRC5 cells were treated with the indicated IFNs for 24 h before cells were lysed and cell lysates were analysed for presence of the indicated proteins by western blotting.

[3] = tested on: Lung endothelial cells (LECs); assay type: cell-based, mouse; details: for sensitivity of cells to death ligand-induced cell death: 1 μg/ml Death Ligand, with zVAD
reovirus 1/L (R1/L) = details: non-therapeutic inhibition; BOOP model and ARDS model; cited from earlier work

Molecule: C[C@]12C=CC(=O)C=C1CC[C@H]1[C@@H]3C[C@@H](O)[C@](O)(C(=O)CO)[C@@]3(C)C[C@H](O)[C@@]12F [Triamcinolone]
- ongoing skin inflammation / skin lesions, therapeutic treatment (Tnfr1KOHoil-1E-KO mice): insufficient to achieve a meaningful therapeutic effect

Molecule: IFN-gamma: type II IFN
- sensitisation to death induction by TRAIL or FasL (NIH3T3 cells; IFN pretreatment 24 hr, 1 μg/ml Death Ligand): significantly sensitised them to death induction by TRAIL or FasL
- cell death induced by IFN alone (NIH3T3 cells; without death ligand): sufficient to significantly induce cell death
- effect of IFN pre-treatment on sensitivity to TRAIL-induced cell death ([1]; IFN overnight, then TRAIL 100 ng/ml): did not increase their sensitivity to cell death induction by TRAIL
- effect of IFN pre-treatment on kinetics of TRAIL-induced cell death ([1]; compared to TRAIL alone): accelerated TRAIL-induced cell death
- effect of IFN pre-treatment on sensitivity to TRAIL-induced cell death ([2]; IFN overnight, then TRAIL 1 μg/ml): did not increase their sensitivity to cell death induction by TRAIL
- FN14 expression (western blot) (MRC5 cells): upregulation of FN14
- MLKL expression (western blot) (MRC5 cells): strongly upregulated
- effect of IFN pre-treatment on sensitivity to death ligand-induced cell death ([3]; IFN overnight): sensitised these cells to FasL-mediated death

Molecule: CN[C@@H](C)C(=O)N[C@H](C(=O)N1CCC[C@H]1C(=O)N[C@H](C(=O)NCCCCCCNC(=O)[C@@H](NC(=O)[C@@H]1CCCN1C(=O)[C@@H](NC(=O)[C@H](C)NC)C1CCCCC1)C(c1ccccc1)c1ccccc1)C(c1ccccc1)c1ccccc1)C1CCCCC1 [BV6] (I: H-[NMeA][Chg]P[Dip] / II: H-[NMeA][Chg]P[Dip]; linker I:C-II:C via Hexamethylenediamine)
- toxicity in combination with TRAIL, IFN-gamma alone or IFN-gamma and TRAIL [2]: enhanced toxicity
- sensitisation of cells by IAP antagonist alone ([2]; BV6 alone, FIG. 9): did not sensitise these cells

Molecule: CC[C@H](C)[C@H](NC(=O)OCc1ccccc1)C(=O)N[C@@H](CCC(=O)OC)C(=O)N[C@H](C(=O)N[C@@H](CC(=O)OC)C(=O)CF)[C@@H](C)O [zIETD-fmk] (Cbz-IE(OMe)TD(OMe)-CH2F)
- aberrant cell death, inflammation and fibrosis in lung tissue (reovirus 1/L (R1/L)): reduces aberrant cell death, inflammation and fibrosis in lung tissue

Molecule: COC(=O)C[C@H](NC(=O)[C@H](C)NC(=O)[C@@H](NC(=O)OCc1ccccc1)C(C)C)C(=O)CF [zVAD-fmk, reference compound] (Cbz-Val-Ala-Asp(OMe)-CH2F)
- inhibition of cell death induced by TRAIL in combination with IFN-gamma ([1]; HPDECs): delayed the death of HPDECs induced by TRAIL in combination with IFN-gamma, it could not prevent it
- inhibition of cell death induced by the different combinations (BV6, TRAIL, IFN-gamma) ([2]; FIG. 9): completely inhibited
- inhibition of TRAIL-induced cell death [2]: completely blocked
- dependence of observed cell death on caspase inhibition ([3]; all death ligands): required inhibition of caspases by zVAD

Molecule: CN1C(=O)NC(Cc2c[nH]c3c(Cl)cccc23)C1=O (stereo not shown) [Nec-1s, reference compound]
- inhibition of cell death induced by TRAIL in combination with IFN-gamma [1]: delayed the death of HPDECs induced by TRAIL in combination with IFN-gamma, it could not prevent it
- inhibition of TRAIL-induced cell death [2]: could not be blocked

B1: FasL: Death Ligand, Fas ligand (protein, UniProt P48023 130-281, looked up)
Tumor necrosis factor ligand …: QIGHPSPPPEKKELRKVAHLTGKSNSRSMPLEWEDTYGIVLLSGVKYKKGGLVINETGLYFVYSKVYFRGQSCNNLPLSHKVYMRNSKYPQDLVMMEGKMMSYCTTGQMWARSSYLGAVFNLTSADHLYVNVSELSLVNFEESQTFFGLYKL
- sensitivity of cells to death ligand-induced cell death [3]: relatively insensitive

B2: TRAIL: Death Ligand, also known as Apo2L (protein, UniProt P50591 1-281, looked up)
Tumor necrosis factor ligand …: MAMMEVQGGPSLGQTCVLIVIFTVLLQSLCVAVTYVYFTNELKQMQDKYSKSGIACFLKEDDSYWDPNDEESMNSPCWQVKWQLRQLVRKMILRTSEETISTVQEKQQNISPLVRERGPQRVAAHITGTRGRSNTLSSPNSKNEKALGRKINSWESSRSGHSFLSNLHLRNGELVIHEKGFYYIYSQTYFRFQEEIKENTKNDKQMVQYIYKYTSYPDPILLMKSARNSCWSKDAEYGLYSIYQGGIFELKENDRIFVSVTNEHLIDMDHEASFFGAFLVG
- sensitivity of cells to death ligand-induced cell death ([1]; 100 ng/ml Death Ligand): exquisitely sensitive to TRAIL-induced apoptosis
- sensitivity of cells to death ligand-induced cell death ([2]; 1 μg/ml Death Ligand): exquisitely sensitive to TRAIL-induced apoptosis
- sensitivity of cells to death ligand-induced cell death [3]: highly sensitive to cell death induction

From US20250011445A1 (priority 2020, published 2025)
